Data published in patent US8835470B2, “Mandelamide heterocyclic compounds” (Bristol-Myers Squibb Company, priority 2010, dated 2014).
Where a name gives a salt, the structure may show the parent alone.

Legend:
[1] = biological target: T1, S1P1 (Homo sapiens (Human), UniProt P21453); assay: S1P1 Binding Assay; conditions: membranes from CHO cells expressing human S1P1; 33P-S1P ligand; rounded to two digits
Procedure: Membranes were prepared from CHO cells expressing human S1P1. Cells were dissociated in buffer containing 20 mM HEPES, pH 7.5, 50 mM NaCl, 2 mM EDTA and Protease Inhibitor cocktail (Roche), and disrupted on ice using the Polytron homogenizer. The homogenate was centrifuged at 20,000 rpm (48,000 G) and the supernatant was discarded. The membrane pellets were resuspended in buffer containing 50 mM HEPES, pH 7.5, 100 mM NaCl, 1 mM MgCl2, 2 mM EDTA and stored in aliquots at −80° C. after protein concentration determination. Membranes (2 μg/well) and 0.03 nM final concentration of ^33P-S1P ligand (1 mCi/ml, American Radiolabeled Chemicals) were added to the compound plates. Binding was performed for 45 minutes at room temperature, terminated by collecting the membranes onto GF/B filter plates, and radioactivity was measured by TOPCOUNT®. The competition data of the test compounds over a range of concentrations was plotted as percentage inhibition of radioligand specific binding. The IC50 is defined as the concentration of competing ligand needed to reduce specific binding by 50%.
The results in Table A were rounded to two digits.

[2] = biological target: T1, S1P1; assay: Receptor [35S] GTPγS Binding Assay, S1P1; format: biochemical; conditions: for EC50: membranes from S1P1/CHO cells, [35S]GTP; for GTPγS S1P3/S1P1: ratio of GTPγS S1P3 EC50 to GTPγS S1P1 EC50, * and ** S1P3 value at detection limit
Procedure: (§1) Receptor [35S] GTPγS Binding Assays
(§2) Membranes prepared from S1P1/CHO cells or EDG3-Ga15-bla HEK293T cells were added to the compound plate (40 μl/well, final protein 3 μg/well) with MULTIDROP®. [^35S]GTP (1250 Ci/mmol, Perkin Elmer) was diluted in assay buffer: 20 mM HEPES, pH7.5, 10 mM MgCl2, 150 mM NaCl, 1 mM EGTA, 1 mM DTT, 10 μM GDP, 0.1% fatty acid free BSA, and 10 μg/ml Saponin to 0.4 nM. 40 μl of the [^35S] GTP solution was added to the compound plate with a final concentration of 0.2 nM. The reaction was kept at room temperature for 45 min. At the end of incubation, all the mixtures in the compound plate were transferred to a 384 well FB filter plates via GPCR robot system. The filter plate was washed with water 4 times by using the modified manifold Embla plate washer and dried at 60° C. for 45 min. 30 μl of MicroScint 20 scintillation fluid was added to each well for counting at Packard TOPCOUNT®.
A larger value for the GTPγS S1P3 EC50 value indicated less activity in the GTPγS S1P3 binding assay.

[3] = biological target: S1P3 (Homo sapiens (Human), UniProt Q99500); assay: Receptor [35S] GTPγS Binding Assay, S1P3; format: biochemical; conditions: membranes from EDG3-Ga15-bla HEK293T cells; * detection limit 62,500 nM, ** detection limit 32,500 nM
S1P3, sequence (Q99500 whole entry): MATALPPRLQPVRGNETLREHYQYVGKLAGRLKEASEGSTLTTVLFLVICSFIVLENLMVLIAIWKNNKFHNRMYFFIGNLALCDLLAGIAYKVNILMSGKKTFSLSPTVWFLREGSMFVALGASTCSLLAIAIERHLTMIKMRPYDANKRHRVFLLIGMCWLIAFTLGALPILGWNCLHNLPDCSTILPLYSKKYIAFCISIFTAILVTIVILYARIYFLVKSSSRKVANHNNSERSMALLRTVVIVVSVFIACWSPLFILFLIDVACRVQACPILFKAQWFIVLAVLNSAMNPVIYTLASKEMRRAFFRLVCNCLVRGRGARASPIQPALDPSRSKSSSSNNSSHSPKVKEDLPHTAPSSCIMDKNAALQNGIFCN
Procedure: as §1
as §2, with “Compounds were loaded in a 384 FALCON® v-bottom plate (0.5 μl/well in a 3-fold dilution). Membranes” for “Membranes”, “TOPCOUNT®. EC50 is defined as the agonist concentration that corresponds to 50% of the Ymax (maximal response) obtained for each individual compound tested.” for “TOPCOUNT®.”
A smaller value for GTPγS S1P1 EC50 value indicated greater activity for the compound in the GTPγS S1P1 binding assay. A larger value for the GTPγS S1P3 EC50 value indicated less activity in the GTPγS S1P3 binding assay.

T1 sequence (P21453 whole entry): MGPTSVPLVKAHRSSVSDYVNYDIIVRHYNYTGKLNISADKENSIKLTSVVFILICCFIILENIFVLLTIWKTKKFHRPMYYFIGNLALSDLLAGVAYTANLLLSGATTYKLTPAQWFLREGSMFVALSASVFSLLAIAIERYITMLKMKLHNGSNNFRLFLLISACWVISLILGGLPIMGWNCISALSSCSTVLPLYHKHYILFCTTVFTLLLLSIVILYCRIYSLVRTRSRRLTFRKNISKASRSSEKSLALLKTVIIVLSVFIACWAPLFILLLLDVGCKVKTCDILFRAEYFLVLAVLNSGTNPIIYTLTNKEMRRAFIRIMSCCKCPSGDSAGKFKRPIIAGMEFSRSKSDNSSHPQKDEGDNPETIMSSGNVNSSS

Structure (SMILES) | IC50 [1] | EC50 [2] | GTPγS S1P3/S1P1 [2] | EC50 [3]
O=C(NC1CNC1)C(O)c1ccc(-c2noc(-c3onc(-c4ccccc4)c3C(F)(F)F)n2)cc1 (single isomer, unassigned) [Example 30, N-(Azetidin-3-yl)-2-hydroxy-2-(4-(5-(3-phenyl-4-(trifluoromethyl)isoxazol-5-yl)-1,2,4-oxadiazol-3-yl)phenyl)acetamide-TFA] | 4.5 nM | 50.9 nM | > 614** | > 31200 nM
O=C(NC1CCC1)C(O)c1ccc(-c2noc(-c3onc(-c4ccccc4)c3C(F)(F)F)n2)cc1 (racemic) [Example 116, (R/S)-N-Cyclobutyl-2-hydroxy-2-(4-(5-(3-phenyl-4-(trifluoromethyl)isoxazol-5-yl)-1,2,4-oxadiazol-3-yl)phenyl)acetamide] |  |  | > 387* | > 62500 nM
CNC(=O)[C@H](CCc1ccccc1)NC(=O)C(O)c1ccc(-c2noc(-c3onc(-c4ccccc4)c3C(F)(F)F)n2)cc1 (mixture of isomers) [Example 26, (R/S)-(2S)-2-(2-Hydroxy-2-(4-(5-(3-phenyl-4-(trifluoromethyl)isoxazol-5-yl)-1,2,4-oxadiazol-3-yl)phenyl)acetamido)-N-methyl-4-phenylbutanamide] | 910 nM | 4280 nM | 1.4 | 6200 nM
CNC(=O)[C@H](C)NC(=O)C(O)c1ccc(-c2noc(-c3onc(-c4ccccc4)c3C(F)(F)F)n2)cc1 (mixture of isomers) [Example 32, (R/S)-2-(2-Hydroxy-2-(4-(5-(3-phenyl-4-(trifluoromethyl)isoxazol-5-yl)-1,2,4-oxadiazol-3-yl)phenyl)acetamido)-N-methyl(S)propanamide] | 2.6 nM | 1.5 nM | 10707 | 16100 nM
O=C(O)CCNC(=O)C(O)c1ccc(-c2noc(-c3onc(-c4ccccc4)c3C(F)(F)F)n2)cc1 (racemic) [Example 22, (R/S)-3-(2-Hydroxy-2-(4-(5-(3-phenyl-4-(trifluoromethyl)isoxazol-5-yl)-1,2,4-oxadiazol-3-yl)phenyl)acetamido)propanoic acid] | 29 nM | 103 nM | > 604* | > 62500 nM
Cc1nnc(CNC(=O)C(O)c2ccc(-c3noc(-c4onc(-c5ccccc5)c4C(F)(F)F)n3)cc2)o1 (single isomer, unassigned) [Example 10, 2-Hydroxy-N-((5-methyl-1,3,4-oxadiazol-2-yl)methyl)-2-(4-(5-(3-phenyl-4-(trifluoromethyl)isoxazol-5-yl)-1,2,4-oxadiazol-3-yl)phenyl)acetamide] | 2 nM | 4.7 nM | 2795 | 13100 nM
O=C(NCC1CCCN1)C(O)c1ccc(-c2noc(-c3onc(-c4ccccc4)c3C(F)(F)F)n2)cc1 (racemic) [Example 88, (R/S)-2-Hydroxy-2-(4-(5-(3-phenyl-4-(trifluoromethyl)isoxazol-5-yl)-1,2,4-oxadiazol-3-yl)phenyl)-N-(pyrrolidin-2-ylmethyl)acetamide, TFA] | 29 nM | 102 nM | 58 | 5940 nM
CC(C)(C)OC(=O)NCCNC(=O)C(O)c1ccc(-c2noc(-c3onc(-c4ccccc4)c3C(F)(F)F)n2)cc1 (racemic) [Example 51, (R/S)-tert-Butyl 2-(2-hydroxy-2-(4-(5-(3-phenyl-4-(trifluoromethyl)isoxazol-5-yl)-1,2,4-oxadiazol-3-yl)phenyl)acetamido)ethylcarbamate] | 31 nM | 89.4 nM |  | 13600 nM

Second part, the compound after the results:

IC50 [1] | EC50 [2] | GTPγS S1P3/S1P1 [2] | EC50 [3] | Structure (SMILES)
8.5 nM | 34.2 nM | > 1827* | > 62500 nM | CCNC(=O)C(O)c1ccc(-c2noc(-c3cnn(-c4ccccc4)c3C(F)(F)F)n2)cc1 (racemic) [Example 61, (R/S)-N-Ethyl-2-hydroxy-2-(4-(5-(1-phenyl-5-(trifluoromethyl)-1H-pyrazol-4-yl)-1,2,4-oxadiazol-3-yl)phenyl)acetamide]
17 nM | 17.4 nM | 1006 | 17500 nM | CCNC(=O)C(O)c1ccc(-c2noc(-c3noc(-c4ccccc4)c3C(F)(F)F)n2)cc1 (racemic) [Example 67, (R/S)-N-Ethyl-2-hydroxy-2-(4-(5-(5-phenyl-4-(trifluoromethyl)isoxazol-3-yl)-1,2,4-oxadiazol-3-yl)phenyl)acetamide]
4.9 nM | 41.4 nM | 267 | 11000 nM | O=C(NCc1ccccn1)C(O)c1ccc(-c2noc(-c3cnn(-c4ccccc4)c3C(F)(F)F)n2)cc1 (racemic) [Example 137, (R/S)-2-hydroxy-2-(4-(5-(1-phenyl-5-(trifluoromethyl)-1H-pyrazol-4-yl)-1,2,4-oxadiazol-3-yl)phenyl)-N-(pyridin-2-ylmethyl)acetamide]
2.1 nM | 13.6 nM | 1484 | 20200 nM | O=C(NCc1cnco1)C(O)c1ccc(-c2noc(-c3onc(-c4ccccc4)c3C(F)(F)F)n2)cc1 (racemic) [Example 126, (R/S)-2-hydroxy-N-(oxazol-5-ylmethyl)-2-(4-(5-(3-phenyl-4-(trifluoromethyl)isoxazol-5-yl)-1,2,4-oxadiazol-3-yl)phenyl)acetamide]
180 nM | 1560 nM | > 20** | > 31200 nM | O=C(NCc1cc2ccccc2[nH]1)C(O)c1ccc(-c2noc(-c3onc(-c4ccccc4)c3C(F)(F)F)n2)cc1 (racemic) [Example 86, (R/S)-N-((1H-Indol-2-yl)methyl)-2-hydroxy-2-(4-(5-(3-phenyl-4-(trifluoromethyl)isoxazol-5-yl)-1,2,4-oxadiazol-3-yl)phenyl)acetamide]
260 nM | 517 nM | 22 | 11200 nM | O=C(NC[C@@H]1CCCC[C@H]1O)C(O)c1ccc(-c2noc(-c3cnn(-c4ccccc4)c3C(F)(F)F)n2)cc1 (mixture of isomers) [Example 152, (R/S)-2-hydroxy-N-(((1S,2R)-2-hydroxycyclohexyl)methyl)-2-(4-(5-(1-phenyl-5-(trifluoromethyl)-1H-pyrazol-4-yl)-1,2,4-oxadiazol-3-yl)phenyl)acetamide]
42 nM | 636 nM | 27 | 17100 nM | Cn1cccc1CNC(=O)C(O)c1ccc(-c2noc(-c3onc(-c4ccccc4)c3C(F)(F)F)n2)cc1 (racemic) [Example 132, (R/S)-2-hydroxy-N-((1-methyl-1H-pyrrol-2-yl)methyl)-2-(4-(5-(3-phenyl-4-(trifluoromethyl)isoxazol-5-yl)-1,2,4-oxadiazol-3-yl)phenyl)acetamide]
3.2 nM | 12.6 nM | 731 | 9210 nM | O=C(NCCO)C(O)c1ccc(-c2noc(-c3noc(-c4ccccc4)c3C(F)(F)F)n2)cc1 (racemic) [Example 62, (R/S)-2-Hydroxy-N-(2-hydroxyethyl)-2-(4-(5-(5-phenyl-4-(trifluoromethyl)isoxazol-3-yl)-1,2,4-oxadiazol-3-yl)phenyl)acetamide]
